What was measured:
[1] = pentanal release rate into the ambient air from compositions; format: physicochemical; conditions: release of 50% of the initial pentanal amount into the ambient air
From the text: The inventors further calculated pentanal release rate into the ambient air from various compositions of the invention and compared the release rate to neat pentanal (liquid), as a negative control. Table 1 presents the time period required for release of 50% of the initial pentanal amount.

Penicillium expansum [2] = test: Petri dish with PDA inoculated with fungi spores exposed to pentanal vapors; format: cell-based; conditions: pentanal vapors about 18 ppm; vs untreated plates
From the text: (§1) FIGS. 1A-1C are images representing inhibition of various plant pathogens Alternaria alternata (1A), Botrytis cinerea (1B), and Penicillium expansum (1C) by pentanal vapors at a concentration of 18 ppm. The inventors tested anti-fungal efficiency of pentanal vapors by exposing various fruits pathogens (e.g., Alternaria, Botrytis, and Penicillium species) to pentanal vapors at a concentration of about 18 ppm. Fruit (in vivo) or Petri dish with PDA (in vitro) inoculated with fungi spores (10^3-10^6 spores/ml) were exposed to pentanal vapors at concentrations of 10-100 ppm for 24 hr. after which the samples were aired and incubated until the pathogens developed in the untreated samples which served as control. The results of this experiment are represented in FIG. 1.

Botrytis cinerea [3] = test: as above; format: cell-based; conditions: pentanal vapors about 18 ppm; vs untreated plates
From the text: as §1

Alternaria alternata = test: as above; format: cell-based; conditions: pentanal vapors about 18 ppm; vs untreated plates
From the text: as §1

[4] = system: pathogen related decay (spoilage) of fruits (pears, strawberries and mandarins); test: decay of fruits exposed to pentanal and stored; format: in vivo; conditions: 10 to 30 ppm pentanal; stored in a cold room and/or at 20° C.
Protocol: Furthermore, various fruits (e.g. pears, strawberries and mandarins) have been exposed to between 10 and 30 ppm of pentanal (e.g. in a form of vapors, or by contacting thereof with an appropriate amount of any one of the composition of the invention). Upon exposure, the treated fruits have been stored for different time periods (in a cold room and/or at 20° C.). Subsequently, the decay of treated fruits has been examined and compared to untreated fruits.

[5] = system: Penicillium expansum spores; test: spores incubated on PDA plates, then exposed to pentanal vapors for 24 hr; format: cell-based
Protocol: The effect of incubation period (hours) of Penicillium expansum spores on PDA plates followed by exposure to pentanal vapors (1.8 ppm, or 18 ppm) for 24 hr was examined.

Penicillium expansum [6] = test: rot development on inoculated pears after cold storage; format: in vivo; conditions: pentanal vapors 18 ppm; 10^3-10^5 spores; 2 months of cold storage (0° C.)
Protocol: (§2) FIGS. 3A-3B are bar graphs representing the development of rots (in mm) on pears that were inoculated with Penicillium expansum (3A) and Botrytis cinera (3B) spores. Pears were inoculated with different concentrations of Penicillium expansum spores: 10^3 spores (A); 10^4 spores (B); 10^5 spores (C). The diameter of rots (in mm) was assessed after 2 months of cold storage (at 0° C.). The graphs represent untreated pears versus pears treated by pentanal vapors (18 ppm).
(§3) The decay was measured after 2 months of cold storage (0° C.).

Botrytis cinerea [7] = test: as above; format: in vivo; conditions: pentanal vapors 18 ppm; 2 months of cold storage (0° C.)
Protocol: as §2, §3

Penicillium expansum [8] = test: electron microscopy of mycelium and spores treated with pentanal; format: cell-based; conditions: pentanal treated vs untreated
Protocol: FIGS. 2A-2C are micrographs presenting the effect of pentanal vapors (lower panel) on the mycelium (2A), conidia (2B), and spores (2C) of Penicillium expansum, as compared to untreated counterparts (upper panel). White arrows represent damage of Penicillium expansum upon exposure to pentanal vapors. Mycelium and spores of Penicillium expansum treated and untreated with pentanal were analyzed using electronic microscope. Untreated mycelium and the spores of Penicillium expansum developed normally (FIG. 2, upper panel) while the Pentanal treated samples were impaired, the round structure of the mycelium was altered and along the mycelium damaged sites were observed (FIG. 2A). The conjugation sites of the spores in conidiophore were also damaged (FIG. 2B), and ruptures were visible on the spores' surface (FIG. 2C).

[9] = system: Penicillium expansum spores; test: effect of different volatiles on viability of spores (CFU); format: cell-based; conditions: 0.9, 1.8 or 18 μL/L
Protocol: FIGS. 4A-4B are bar graphs representing antifungal activity of different VOCs. FIG. 4A represents the effect of Butyl acetate (B) Hexyl acetate (H), Isoamyl acetate (I), Trans-2-Hexanal (T), and Pentanal (P) and Control (C) at the concentrations of 1.8 μL/L or 18 μL/L on Penicillium expansum spores (CFU). Different letters represent significant differences between treatments (p<0.05). A-C-1.8 μL/L, a-c-18 μL/L 1.8. FIG. 4B represents the effect of different volatiles Hexyl acetate (H), Trans-2-Hexanal (T), Pentanal (P), Hexanal (He) and Control (C) at the concentrations of 0.9 μL/L, 1.8 μL/L or 18 μL/L on Penicillium expansum spores (CFU). Different letters represent significant differences between treatments (p<0.05). A-C-1.8 μL/L, a-c-18 μL/L 1.8.
The inventors additionally examined the effect of different volatiles on the viability of Penicillium expansum spores. The volatiles tested were: Butyl acetate, Hexyl acetate, Isoamyl acetate, […] and they were compared to Pentanal at two different concentrations (1.8 μL/L or 18 μL/L). Furthermore, the inventors examined lower concentration (0.9 μL/L) for the following VOCs hexanal, trans-hexenal, and hexyl acetate on Penicillium expansum spores (CFU).

[10] = system: Penicillium expansum and/or Botrytis cinerea; test: storage shelf-life of inoculated fruit and vegetables exposed to pentanal vapors; format: in vivo; conditions: strawberries
From the text: Furthermore, the inventors tested the storage shelf-life of various inoculated fruit and vegetables species, such as: apples, pears, strawberries, lichi, cucumbers, citrus fruits, grapes under similar storage conditions upon exposure thereof to pentanal vapors. The fruits have been inoculated with Penicillium expansum and/or Botrytis cinerea spores and exposed to pentanal vapors at a concentration ranging between 30 and 100 ppm during the cold storage. […] The exact preservative effective amount of pentanal vapors varies dependent on the specific fruit specie, for example strawberries require higher concentration of pentanal, about 80-100 ppm.

## CCCCC=O [Pentanal]
[1]
  Time (min) until 50% release: 5 min
Penicillium expansum [2]
  fungal growth in petri dish: completely prevented fungal growth
Botrytis cinerea [3]
  fungal growth in petri dish: completely prevented fungal growth
Alternaria alternata
  fungal growth in petri dish: completely prevented fungal growth
[4]
  decay of treated fruits compared to untreated fruits: prevention pathogen related decay (spoilage)
[5]; pentanal vapors 1.8 ppm for 24 hr
  fungal colonies 6 days after exposure: no fungal colonies were detected
[5]; pentanal vapors 18 ppm for 24 hr
  fungal colonies 6 days after exposure: no fungal colonies were detected
Penicillium expansum [6]
  decay development in inoculated pears: significantly delayed decay development
Botrytis cinerea [7]
  decay development in inoculated pears: significantly delayed decay development
Penicillium expansum [8]
  damage to mycelium, conidiophore and spores (electron microscope): physical damage
[9]
  anti-fungal activity (CFU) compared to other VOCs: significantly enhanced anti-fungal activity
[10]; pentanal vapors 30 to 100 ppm during cold storage, apples, pears, lichi, cucumbers, citrus fruits, grapes
  shelf-life of inoculated fruits and vegetables vs non-treated controls: significantly prolong the shelf-life
[10]
  preservative effective amount of pentanal vapors: 80-100 ppm

— US20250194593A1, “PESTICIDAL COMPOSITIONS COMPRISING PENTANAL AND USES THEREOF” (MIGAL GALILEE RESEARCH INSTITUTE LTD., priority 2022, published 2025)
